Assays:
erythrocytes [1] = assay: Distribution of total radioactivity (3H/14C) on erythrocytes and plasma after one-time oral administration (FIG. 1); format: in vivo; conditions: 3H-labeled steroid skeleton
Description: There are indications that in oral administration, both radicals R^1 and R^2, if they are different from a hydrogen atom, are cleaved off and are replaced by a hydrogen atom, so that in this case, not the group —SO2NR^1R^2, but rather the group —SO2NH2 is provided for the uptake into erythrocytes or binding to erythrocytes. […] The data also confirm that substances according to the invention are enriched in the erythrocyte compartment relative to the plasma.

erythrocytes [2] = assay: Stability of the prodrug and release of the active ingredient in erythrocytes, plasma and tissues; format: in vitro ADME
Description: If the compounds act as a prodrug, the therapeutically desirable action is obtained by release, especially hydrolytic cleavage, of the active ingredient that is contained in the product and/or its metabolites.

[3] = molecular target: T1, carboanhydrase II (hCA II) (Homo sapiens, UniProt P00918); assay: Affinity chromatography of erythrocyte lysate proteins on immobilized estradiol sulfamate derivative, eluate analysed by Western blot; format: binding; conditions: ligand J1242 immobilized on E-AH-sepharose
T1 construct: proteins of erythrocyte-lysates were separated on the column; from tissue; host or cells: erythrocytes (lysate)
Description: In FIG. 3, the chemical synthesis of a linkable estradiol sulfamate (J1242) is shown, which is described in S. Schwarz et al., Steroids 64 (1999) 460–471.
After the estradiol sulfamate derivative is immobilized in the column material (E-AH-sepharose), proteins of erythrocyte-lysates were separated on the column. The protein that is responsible for the binding of estradiol sulfamate in erythrocytes was adsorbed on the surface of the affinity chromatography column. After the protein remaining on the column was washed and eluted with an acetate buffer, the eluate was analyzed with use of the “Western Plot Technique” (see FIGS. 4 and 5).

[4] = Hepatic estrogenicity after oral administration; format: in vivo
Description: After oral administration, estradiol sulfamate is resorbed by the gastrointestinal tract and is taken up into erythrocytes or bonded to erythrocytes. […] The estradiol sulfamate is enriched in the erythrocytes by a multiple (factor: 98:2) of the plasma concentration, whereby a depot of the estradiol sulfamate is produced that makes possible the slow release of the estradiol sulfamate into peripheral tissues and target tissues (see FIG. 2). This makes possible an extension of the dwell time of the estradiol sulfamate in the organism, and the occurrence of very high levels in the plasma is avoided.

| Compound | presence of the 14C-labeled acyl substituent of the sulfamate radical in the blood (erythrocytes [1]) | site of release of the active ingredient from the prodrug (erythrocytes [2]) | stability of the compound in erythrocytes (erythrocytes [2]; erythrocytes) | binding to carrier protein in erythrocytes [3] | hepatic estrogenicity [4] |
| --- | --- | --- | --- | --- | --- |
| 17β-hydroxy-estra-1,3,5(10)-trien-3-yl-(N-acetyl)sulfamate [J1045] | no longer present in the-blood |  |  |  |  |
| C[C@]12CC[C@@H]3c4ccc(OS(N)(=O)=O)cc4CC[C@H]3[C@@H]1CC[C@@H]2O [J995, estradiol sulfamate] |  | only in the plasma or in tissues | stable in the erythrocytes | binds to the carboanhydrase II (hCA II) | reduced hepatic estrogenicity |
